According to paper PMC9606171, “Synthetic PPAR Agonist DTMB Alleviates Alzheimer’s Disease Pathology by Inhibition of Chronic Microglial Inflammation in 5xFAD Mice” (Neurotherapeutics, 2022):

What was measured:
[1] = tested on: RAW 264.7 macrophage cells; test: Griess assay, LPS-induced NO production; type: cell-based; conditions: LPS (1 µg/mL), 24 h
Method: Griess assay (Promega) was performed under manufacturer’s instruction to measure the concentration of nitrite after inducing the inflammatory response in RAW 264.7 macrophage cells by LPS treatment. The well-known PPAR selective agonists, such as WY14643 (PPARα), GW501516 (PPAR-β/δ), and rosiglitazone (PPARγ), were used as positive controls.

PPAR-β/δ = tested on: PPAR-β/δ; parameters: method as in PMID 27802237; conditions: dual agonist of PPAR-β/δ and PPARγ; cited from earlier work

Cc1cc(SCc2sc(-c3ccc(C(F)(F)F)cc3)nc2C)ccc1OCC(=O)O [GW501516, reference compound]
inhibition of NO production compared between DTMB and known PPAR agonists [1]: better inhibitor than DTMB

CCc1oc(-c2ccc(OC)cc2)nc1CCOc1ccc2c(c1)CC[C@H]2CC(=O)[O-].[Na+] [T3D-959]
selectivity to PPAR-β/δ (PPAR-β/δ): 15 fold
